Source: patent publication US20230107941A1, “HEPATITIS B CAPSID ASSEMBLY MODULATORS” (Venatorx Pharmaceuticals, Inc., priority 2019, published 2023)

Tests used:
[1] = In vitro cytotoxicity assay (MTT cell viability) in HepG2 cells; format: cell-based, human; details: human
Procedure, shortened: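 CC50 was derived by 4-parameter fit of viability relative to vehicle controls, measured as MTT formazan absorbance at 492 nm after 3–4 h of reagent and DMSO solubilization. Before that, HepG2 cells seeded overnight at 20,000/well were incubated 7 days at 37°C with compound from 30 μM down to 1.0 nM in half-log steps.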

HBV = experiment: In vitro antiviral assay: anti-HBV replication in HepAD38 cells (extracellular HBV DNA by QPCR); format: cell-based, hepatitis B virus (genotype D, serotype ayw); details: Hepatitis B virus, HePAD38, 168 h, 7 days incubation, extracellular HBV DNA by QPCR, read-out: Anti-HBV EC50
Procedure, shortened: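 Read-out is extracellular HBV DNA (copies/mL, QPCR standard curve) after 7-day exposure of tet-free HepAD38 cells to 10-fold dilutions from 1 μM down to 10 pM. Values normalised to DMSO vehicle; EC50 from 4-parameter nonlinear regression, with entecavir validating each run.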

| SMILES | CC50 at 7 days [1] | EC50 (HBV) |
| --- | --- | --- |
| Cc1cc(NC(=O)c2c(C)c(C(=O)C(=O)N[C@@H]3CC[C@H](O)C[C@H]3F)n(C)c2C)ccc1F [Example 15, N-(4-fluoro-3-methylphenyl)-5-(2-(((1R,2R,4S)-2-fluoro-4-hydroxycyclohexyl)amino)-2-oxoacetyl)-1,2,4-trimethyl-1H-pyrrole-3-carboxamide] | > 30000 nM | < 50 nM |
| Cc1cc(NC(=O)c2c(C)c(C(=O)C(=O)NCC(C)(C)O)n(C)c2-c2ccccn2)ccc1F [Example 159, N-(4-fluoro-3-methylphenyl)-5-(2-((2-hydroxy-2-methylpropyl)amino)-2-oxoacetyl)-1,4-dimethyl-2-(pyridin-2-yl)-1H-pyrrole-3-carboxamide] | > 30000 nM | > 1000 nM |
| Cc1cc(NC(=O)c2c(C3CC3)c(C(=O)C(=O)N[C@H](C)C(F)(F)F)n(C)c2C)ccc1F [Example 101, (R)-4-cyclopropyl-N-(4-fluoro-3-methylphenyl)-1,2-dimethyl-5-(2-oxo-2-((1,1,1-trifluoropropan-2-yl)amino)acetyl)-1H-pyrrole-3-carboxamide] | > 30000 nM | < 50 nM |
| Cc1noc(C2(NC(=O)c3c(C)c(C(=O)C(=O)Nc4cccnc4)n(C)c3C)CC2)n1 [Example 30, 1,2,4-trimethyl-N-(1-(3-methyl-1,2,4-oxadiazol-5-yl)cyclopropyl)-5-(2-oxo-2-(pyridin-3-ylamino)acetyl)-1H-pyrrole-3-carboxamide] | > 30000 nM | > 1000 nM |
| Cc1cc(NC(=O)c2c(C)c(C(=O)C(=O)N[C@H]3CC[C@@H](S(C)(=O)=O)CC3)n(C)c2C2CCCCC2)ccc1F [Example 117, 2-cyclohexyl-N-(4-fluoro-3-methylphenyl)-1,4-dimethyl-5-(2-(((1s,4s)-4-(methylsulfonyl)cyclohexyl)amino)-2-oxoacetyl)-1H-pyrrole-3-carboxamide] | > 30000 nM | > 1000 nM |
| Cc1cc(NC(=O)c2c(C)c(C(=O)C(=O)N[C@]3(C)CC[C@H](O)CC3)n(C)c2C(C)C)ccc1F [Example 111, N-(4-fluoro-3-methylphenyl)-5-(2-(((1s,4s)-4-hydroxy-1-methylcyclohexyl)amino)-2-oxoacetyl)-2-isopropyl-1,4-dimethyl-1H-pyrrole-3-carboxamide] | > 30000 nM | < 50 nM |
| CC(=O)N1CCC(CO)(NC(=O)C(=O)c2c(C)c(C(=O)Nc3ccc(F)c(C)c3)c(C)n2C)CC1 [Example 72, 5-(2-((1-acetyl-4-(hydroxymethyl)piperidin-4-yl)amino)-2-oxoacetyl)-N-(4-fluoro-3-methylphenyl)-1,2,4-trimethyl-1H-pyrrole-3-carboxamide] | > 30000 nM | < 50 nM |
| Cc1cc(NC(=O)c2c(C)c(C(=O)C(=O)NC3(C)CCCN(C(=O)Nc4ccc(F)c(F)c4)C3)n(C)c2C)ccc1F (centres unmarked) [Example 49, N-(3,4-difluorophenyl)-3-(2-(4-((4-fluoro-3-methylphenyl)carbamoyl)-1,3,5-trimethyl-1H-pyrrol-2-yl)-2-oxoacetamido)-3-methylpiperidine-1-carboxamide] | > 30000 nM | 50 to 499 nM |
| Cc1cccc(NC(=O)c2c(C)c(C(=O)C(=O)NC(C)(C)C)n(C)c2C)c1F [Example 66, 5-(2-(tert-butylamino)-2-oxoacetyl)-N-(2-fluoro-3-methylphenyl)-1,2,4-trimethyl-1H-pyrrole-3-carboxamide] | > 30000 nM | < 50 nM |
| CCc1c(C(=O)Nc2ccc(F)c(C)c2)c(C)c(C(=O)C(=O)N[C@]2(C)C[C@H](O)C2)n1C [Example 104, 2-ethyl-N-(4-fluoro-3-methylphenyl)-5-(2-(((1s,3s)-3-hydroxy-1-methylcyclobutyl)amino)-2-oxoacetyl)-1,4-dimethyl-1H-pyrrole-3-carboxamide] | > 30000 nM | < 50 nM |
| Cc1cc(NC(=O)c2c(C)c(C(=O)C(=O)NCC(C)(C)O)n(C)c2-c2ccncc2)ccc1F [Example 164, N-(4-fluoro-3-methylphenyl)-5-(2-((2-hydroxy-2-methylpropyl)amino)-2-oxoacetyl)-1,4-dimethyl-2-(pyridin-4-yl)-1H-pyrrole-3-carboxamide] | > 30000 nM | > 1000 nM |
| Cc1cc(NC(=O)c2c(C)c(C(=O)C(=O)N[C@H]3CC[C@@H](S(C)(=O)=O)CC3)n(C)c2C2CCCC2)ccc1F [Example 131, 2-cyclopentyl-N-(4-fluoro-3-methylphenyl)-1,4-dimethyl-5-(2-(((1s,4s)-4-(methylsulfonyl)cyclohexyl)amino)-2-oxoacetyl)-1H-pyrrole-3-carboxamide] | 5000 to 30000 nM | > 1000 nM |
| CCc1c(C(=O)Nc2ccc(F)c(C)c2)c(C)n(C)c1C(=O)C(=O)NC1CCN(c2cccnn2)CC1 [Example 91, 4-ethyl-N-(4-fluoro-3-methylphenyl)-1,2-dimethyl-5-(2-oxo-2-((1-(pyridazin-3-yl)piperidin-4-yl)amino)acetyl)-1H-pyrrole-3-carboxamide] | > 30000 nM | 50 to 499 nM |
| CCC1(NC(=O)C(=O)c2c(C)c(C(=O)Nc3ccc(F)c(C)c3)c(C)n2C)CCN(S(C)(=O)=O)CC1 [Example 42, 5-(2-((4-ethyl-1-(methylsulfonyl)piperidin-4-yl)amino)-2-oxoacetyl)-N-(4-fluoro-3-methylphenyl)-1,2,4-trimethyl-1H-pyrrole-3-carboxamide] | > 30000 nM | < 50 nM |
| Cc1cc(NC(=O)c2c(C(C)C)c(C(=O)C(=O)N[C@H](C)C(F)(F)F)n(C)c2C)ccc1F [Example 96, (R)-N-(4-fluoro-3-methylphenyl)-4-isopropyl-1,2-dimethyl-5-(2-oxo-2-((1,1,1-trifluoropropan-2-yl)amino)acetyl)-1H-pyrrole-3-carboxamide] | > 30000 nM | > 1000 nM |
| Cc1cc(NC(=O)c2c(C)c(C(=O)C(=O)N[C@H]3CC[C@@H](S(C)(=O)=O)CC3)n(C)c2-c2nccs2)ccc1F [Example 175, N-(4-fluoro-3-methylphenyl)-1,4-dimethyl-5-(2-(((1s,4s)-4-(methylsulfonyl)cyclohexyl)amino)-2-oxoacetyl)-2-(thiazol-2-yl)-1H-pyrrole-3-carboxamide] | > 30000 nM | > 1000 nM |
| CCc1c(C(=O)Nc2ccc(F)c(C)c2)c(C)c(C(=O)C(=O)NCC(C)(C)O)n1C [Example 105, 2-ethyl-N-(4-fluoro-3-methylphenyl)-5-(2-((2-hydroxy-2-methylpropyl)amino)-2-oxoacetyl)-1,4-dimethyl-1H-pyrrole-3-carboxamide] | > 30000 nM | < 50 nM |
| Cc1cc(NC(=O)c2c(C)c(C(=O)C(=O)NCC(C)(C)O)n(C)c2-c2ccsc2)ccc1F [Example 185, N-(4-fluoro-3-methylphenyl)-5-(2-((2-hydroxy-2-methylpropyl)amino)-2-oxoacetyl)-1,4-dimethyl-2-(thiophen-3-yl)-1H-pyrrole-3-carboxamide] | 5000 to 30000 nM | 500 to 1000 nM |
| Cc1c(C(=O)Nc2ccc(F)c(C#N)c2)c(C)n(C)c1C(=O)C(=O)Nc1ccc(B(O)O)cc1 [Example 140, (4-(2-(4-((3-cyano-4-fluorophenyl)carbamoyl)-1,3,5-trimethyl-1H-pyrrol-2-yl)-2-oxoacetamido)phenyl)boronic acid] | > 30000 nM | < 50 nM |
